In patent US5840692A, “Peptide fragments and analogs of thrombospondin” (Allegheny University of the Health Sciences, priority 1995, dated 1998):
Where “and” joins values, the source holds several entries; their conditions need not be identical. Equal values may be shown once. Residues, ends and D or L forms follow the SMILES beside them.

Assays:
[1] = system: B16 F10 mouse melanoma cells; assay: Antimetastatic activity in vivo, lung tumors after i.v. melanoma cells; design: species or system C57 black mice; conditions: for % buffer control (number of lung tumors): i.v. with 5×10^5 B16 F10 cells, lung tumors counted after 16 days; for number of tumors versus controls (in words) / size of lung tumors (in words): treated C57 black mice, 16 days
Description: Briefly, C57 black mice were intravenously injected with 5×10^5 B16 F10 mouse melanoma cells in the presence of either control buffer (Hepes buffered saline, pH 7.4), or the indicated amount of peptide compound of the invention p1, p5 or p6. After 16 days, the mice were sacrificed and the number of lung tumors counted.

[2] = system: platelets (adhesion to absorbed fibronectin (FN)); assay: Competitive assay, platelet adhesion to absorbed fibronectin (FN); format: cell-based; conditions: for % Buffer Control (platelet adhesion): absorbed protein FN, platelets preincubated with 250 μg/ml compound
Procedure: (§1) The number of adherent platelets was essentially determined as previously described (Tuszynski et al., Anal. Bio. supra). Briefly, 100 μl of 5×10^8 platelets/ml washed as previously described (Tuszynski, et al., Blood 72, 109-225, 1988) were added to microtiter plates, the wells of which were treated with 50 μl of a 40 μg/ml peptide or protein solution (Hepes buffered saline, pH 7.4). Solutions were dried at room temperature after incubation in a fume hood for two hours. Wells were blocked for one hour with 1% BSA. Platelets (100 μl) were incubated in the wells for 30 minutes and non-adherent platelets were removed by aspiration. Wells were washed 3× with 200 μl of Hepes buffered saline, pH 7.4. The number of adherent platelets was determined by measuring the platelet-derived protein using the BCA protein assay.
(§2) The direct adhesion assay of Example 7 was modified to measure the ability of the peptide compounds of the invention to compete with intact thrombospindin or fibronectin for adhesion of platelets.
(§3) In this assay, thrombospondin (TSP) or fibronectin (FN) was absorbed onto microtiter dish as described in Example 7. The assay was similar to Example 7 except that before platelets were added to the microtiter dishes they were preincubated with 250 μg/ml of various ligands.

[3] = system: melanoma cells (adhesion to absorbed intact thrombospondin); assay: Competitive assay to measure thrombospondin specific adhesion to melanoma cells; format: cell-based, mouse; conditions: for competition with thrombospondin for adhesion to melanoma cells (in words): at this concentration (100 μg/ml)
Procedure: (§4) It is believed that thrombospondin acts in metastasis through its adhesive properties. An assay was developed, generally in accordance with the disclosure of Tuszynski et al. (Anal. Bio. (1990) 184:189-91) which evaluates the ability of melanoma cells to adhere to the thrombospondin fragments or analogs of the invention. In this assay, wells of a 96-well microtiter dish (Costar, Cambridge, Mass.) were incubated for two to three hours with 50 μl of a 40 μg/ml solution of various ligands in 20 mM NaCl, pH 7.3. Thrombospondin (purified by the method of Tuszynski et al., J. Biol. Chem. (1985) 260:12240-5), fibronectin (Sigma Chemical Co., Missouri) served as the positive control. Bovine serum albumin (BSA) (Sigma Chemical Co.) served as the negative control. Thrombospondin analogs of the invention p1, p5 and p6 were synthesized as described in Examples 1 through 3. Following peptide adhesion to the microtiter dish, the wells were aspirated, treated with 200 μl phosphate buffered saline (PBS) containing 1% BSA for 1 hour and then washed three more times with 200 μl PBS.
(§5) Mouse B16 F10 melanoma cells were grown and harvested during log phase of growth using standard procedures. The harvested cells were washed two times in serum-free Dulbecco's minimum essential medium (DMEM) (Flow Laboratories) and suspended in DMEM at a final concentration of 4×10^5 cells/ml. Of the cell suspension 100 μl was added to each well of the microtiter dish containing the various ligands and the dish incubated at 37° C. in a CO2 incubator for 1 hour. Nonadherent cells were removed by aspiration and the wells washed three times with 200 μl of PBS. The total cell-associated protein was determined by dissolving the attached cells directly in the microtiter wells with 200 μl of the Pierce BCA working solution (Pierce Chem. Co. Booklet No. 23225 (1987)). The plate was covered with an adhesive mylar sheet (Flow Labs) and incubated at 60° C. for 30 minutes. Plates were allowed to cool to room temperature, cover sheets were removed, and the absorbance of each well was determined at 562 nm with a microtiter plate reader (Biotek, Burlington, Vt.)
The direct adhesion assay of Example 5 was modified to measure the ability of the peptide compounds of the invention to compete with intact thrombospondin for adhesion to melanoma cells.
In this assay, intact thrombospondin is absorbed onto microtiter dishes as described in Example 5. […]

platelets = assay: Direct platelet adhesion assay; format: cell-based; conditions: for adherence to platelets (in words): at this concentration (40 μg/ml coating solution); for Adherence as % Control: wells treated with 50 μl of 40 μg/ml peptide or protein, platelets incubated 30 minutes, BCA protein assay
Procedure: as §1

[4] = system: platelets (adhesion to absorbed thrombospondin (TSP)); assay: Competitive assay, platelet adhesion to absorbed thrombospondin (TSP); format: cell-based; conditions: for % Buffer Control (platelet adhesion): absorbed protein TSP, platelets preincubated with 250 μg/ml compound
Procedure: as §1, §2, §3

[5] = system: Mouse B16 F10 melanoma cells; assay: Direct adhesion assay: melanoma cells adhering to ligand-coated wells; format: cell-based; conditions: for Adhesion as % Thrombospondin: absorbed compound 2 μg per well, B16 F10 melanoma cells, 1 hour at 37° C., cell protein by BCA, absorbance 562 nm; for adhesive properties (in words): melanoma cell adhesion to coated peptide
Procedure: as §4, §5

[6] = system: platelets in platelet-rich-plasma (PRP); assay: Platelet aggregation assay in platelet-rich plasma, ADP-initiated; format: cell-based; conditions: 0.5 ml PRP, aggregation initiated with 1 μM ADP
Procedure: Platelet aggregation was monitored on a single-channel aggregometer equipped to measure luminescence (Chromo-Log, Havertown, Pa.). Platelet-rich-plasma (PRP) was obtained from whole blood anti-coagulated with 0.38% Sodium Citrate by centrifugation at 150×g for 20 minutes. Peptides were added to 0.5 ml of PRP and aggregation initiated with 1 μM ADP. Buffer blanks contained diluent (water) but no peptide.

[7] = cells preincubated 15 minutes with 100 μg/ml compound
[8] = cells preincubated with 200 μg/ml compound
[9] = cells preincubated with 300 μg/ml compound
[10] = cells preincubated with 10 μg/ml compound
[11] = cells preincubated with 50 μg/ml compound

| Compound | % buffer control (number of lung tumors) ([1]; 30 μg/mouse) | % buffer control (number of lung tumors) ([1]; 100 μg/mouse) | % buffer control (number of lung tumors) ([1]; 300 μg/mouse) | number of tumors versus controls (in words) [1] | size of lung tumors (in words) [1] | % Buffer Control (platelet adhesion) [2] | competition with thrombospondin for adhesion to melanoma cells (in words) [3] | % of buffer control (melanoma cell adhesion to thrombospondin) [3, 7] | % of buffer control (melanoma cell adhesion to thrombospondin) [3, 8] | % of buffer control (melanoma cell adhesion to thrombospondin) [3, 9] | adherence to platelets (in words) (platelets) | Adherence as % Control (platelets) | % Buffer Control (platelet adhesion) [4] | Adhesion as % Thrombospondin [5] | adhesive properties (in words) [5] | inhibition of platelet aggregation (in words, FIG. 1) [6] | competition with fibronectin for platelet adhesion (in words) ([2]; 250 μg/ml) | % of buffer control (melanoma cell adhesion to thrombospondin) [3, 10] | % of buffer control (melanoma cell adhesion to thrombospondin) [3, 11] | competition with thrombospondin for platelet adhesion (in words) ([4]; 250 μg/ml) |
| --- | --- | --- | --- | --- | --- | --- | --- | --- | --- | --- | --- | --- | --- | --- | --- | --- | --- | --- | --- | --- |
| WSPCSVTCGNH2 [Compound p6] | 91% | 102% | 50% | statistically fewer tumors than controls | smaller in size | 96% | compete to a lesser degree | 89% | 74% | 74% | adhere to platelets | 38% | 98% | 70% | display adhesive properties | inhibit platelet aggregation | – | – | – | – |
| CC(C)[C@H](NC(=O)[C@H](CO)NC(=O)[C@H](CS)NC(=O)[C@@H]1CCCN1C(=O)[C@H](CO)NC(=O)[C@@H](N)Cc1c[nH]c2ccccc12)C(=O)N[C@H](C(=O)N[C@@H](CS)C(=O)NCC(=O)O)[C@@H](C)O [Compound p1, WSPCSVTCG] (H-WSPCSVTCG-OH) | 49% | – | – | statistically fewer tumors than controls | smaller in size | 108% | able to effectively compete with thrombospondin | – | – | – | adhere to platelets | – | 71% | 98% | display adhesive properties | inhibit platelet aggregation | did not compete with fibronectin | 49% | 40% | effectively competed with thrombospondin |
| fibronectin | – | – | – | – | – | – | – | – | – | – | – | 83% | – | – | – | – | – | – | – | – |
| fWSPCSVTCGNH2 [Compound p5] | 87% | – | – | statistically fewer tumors than controls | – | 109% | compete to a lesser degree | 62% and 108% and 83% | 89% | 83% | – | 2.1% | 107% | 79% | display adhesive properties | inhibit platelet aggregation | – | 99% | 104% | – |
| Thrombospondin: large molecular weight 180 kD glycoprotein of three identical disulfide-linked polypeptide chains; purified intact protein, positive control | – | – | – | – | – | – | – | – | – | – | – | 100% | – | 100% | – | – | – | – | – | – |
